In ChEMBL document CHEMBL4138123, “Design, synthesis and biological evaluation of novel pyrazolochalcones as potential modulators of PI3K/Akt/mTOR pathway and inducers of apoptosis in breast cancer cells” (Eur J Med Chem, 2017):

Legend:
Format in all cases: functional
786-0 = test: Cytotoxicity against human 786-0 cells assessed as cell growth at 0.1 uM after 48 hrs by sulforhodamine B assay relative to control; conditions: 786-0, 48 h, read-out: Activity
UO-31 [1] = test: Cytotoxicity against human UO31 cells assessed as cell growth at 1 uM after 48 hrs by sulforhodamine B assay relative to control; conditions: UO-31, 48 h, read-out: Activity
NCI-H322M = test: Cytotoxicity against human NCI-H322M cells assessed as cell growth at 0.1 uM after 48 hrs by sulforhodamine B assay relative to control; conditions: read-out: Activity
MCF7 = test: Cytotoxicity against human MCF7 cells assessed as growth inhibition after 48 hrs by sulforhodamine B assay; conditions: MCF7, 48 h
NCI-H226 = test: Cytotoxicity against human NCI-H226 cells assessed as cell growth at 100 uM after 48 hrs by sulforhodamine B assay relative to control; conditions: NCI-H226, 48 h, read-out: Activity
SF-268 = test: Cytotoxicity against human SF268 cells assessed as cell growth at 0.01 uM after 48 hrs by sulforhodamine B assay relative to control; conditions: SF-268, 48 h, read-out: Activity
MDA-MB-231 = test: Cytotoxicity against human MDA-MB-231 cells assessed as cell growth at 100 uM after 48 hrs by sulforhodamine B assay relative to control; conditions: MDA-MB-231, 48 h, read-out: Activity
M14 [2] = test: Cytotoxicity against human M14 cells assessed as growth inhibition after 48 hrs by sulforhodamine B assay; conditions: M14, 48 h
HL-60(TB) = test: Cytotoxicity against human HL-60(TB) cells assessed as cell growth at 10 uM after 48 hrs by sulforhodamine B assay relative to control; conditions: HL-60, 48 h, read-out: Activity
UO-31 [3] = test: Cytotoxicity against human UO31 cells assessed as cell growth at 0.01 uM after 48 hrs by sulforhodamine B assay relative to control; conditions: UO-31, 48 h, read-out: Activity
IGROV-1 [4] = test: Cytotoxicity against human IGROV1 cells assessed as cell growth at 0.1 uM after 48 hrs by sulforhodamine B assay relative to control; conditions: IGROV-1, 48 h, read-out: Activity
HCT-15 = test: Cytotoxicity against human HCT15 cells assessed as cell growth at 0.1 uM after 48 hrs by sulforhodamine B assay relative to control; conditions: HCT-15, 48 h, read-out: Activity
RXF 393 = test: Cytotoxicity against human RXF393 cells assessed as cell growth at 10 uM after 48 hrs by sulforhodamine B assay relative to control; conditions: RXF 393, 48 h, read-out: Activity
M14 [5] = test: Cytotoxicity against human M14 cells assessed as cell growth at 10 uM after 48 hrs by sulforhodamine B assay relative to control; conditions: M14, 48 h, read-out: Activity
COLO 205 [6] = test: Cytotoxicity against human COLO205 cells assessed as cell growth at 0.01 uM after 48 hrs by sulforhodamine B assay relative to control; conditions: COLO 205, 48 h, read-out: Activity
COLO 205 [7] = test: Cytotoxicity against human COLO205 cells assessed as cell growth at 100 uM after 48 hrs by sulforhodamine B assay relative to control; conditions: COLO 205, 48 h, read-out: Activity
Malme-3M [8] = test: Cytotoxicity against human MALME-3M cells assessed as cell growth at 10 uM after 48 hrs by sulforhodamine B assay relative to control; conditions: read-out: Activity
Malme-3M [9] = test: Cytotoxicity against human MALME-3M cells assessed as cell growth at 100 uM after 48 hrs by sulforhodamine B assay relative to control; conditions: read-out: Activity
SNB-19 = test: Cytotoxicity against human SNB19 cells assessed as cell growth at 1 uM after 48 hrs by sulforhodamine B assay relative to control; conditions: SNB-19, 48 h, read-out: Activity
UO-31 [10] = test: Cytotoxicity against human UO31 cells assessed as cell growth at 100 uM after 48 hrs by sulforhodamine B assay relative to control; conditions: UO-31, 48 h, read-out: Activity
A498 [11] = test: Cytotoxicity against human A498 cells assessed as cell growth at 100 uM after 48 hrs by sulforhodamine B assay relative to control; conditions: A498, 48 h, read-out: Activity
MDA-MB-468 [12] = test: Cytotoxicity against human MDA-MB-468 cells assessed as cell growth at 1 uM after 48 hrs by sulforhodamine B assay relative to control; conditions: MDA-MB-468, 48 h, read-out: Activity
MDA-MB-468 [13] = test: Cytotoxicity against human MDA-MB-468 cells assessed as cell growth at 0.1 uM after 48 hrs by sulforhodamine B assay relative to control; conditions: MDA-MB-468, 48 h, read-out: Activity
HOP-62 = test: Cytotoxicity against human HOP62 cells assessed as cell growth at 0.01 uM after 48 hrs by sulforhodamine B assay relative to control; conditions: HOP-62, 48 h, read-out: Activity
ACHN = test: Cytotoxicity against human ACHN cells assessed as growth inhibition after 48 hrs by sulforhodamine B assay
HCC 2998 = test: Cytotoxicity against human HCC2998 cells assessed as growth inhibition after 48 hrs by sulforhodamine B assay; conditions: HCC 2998, 48 h
SR = test: Cytotoxicity against human SR cells assessed as cell growth at 0.1 uM after 48 hrs by sulforhodamine B assay relative to control; conditions: read-out: Activity
NCI-H23 = test: Cytotoxicity against human NCI-H23 cells assessed as cell growth at 1 uM after 48 hrs by sulforhodamine B assay relative to control; conditions: NCI-H23, 48 h, read-out: Activity
A498 [14] = test: Cytotoxicity against human A498 cells assessed as cell growth at 0.1 uM after 48 hrs by sulforhodamine B assay relative to control; conditions: A498, 48 h, read-out: Activity
IGROV-1 [15] = test: Cytotoxicity against human IGROV1 cells assessed as cell growth at 100 uM after 48 hrs by sulforhodamine B assay relative to control; conditions: IGROV-1, 48 h, read-out: Activity
OVCAR-5 = test: Cytotoxicity against human OVCAR5 cells assessed as cell growth at 100 uM after 48 hrs by sulforhodamine B assay relative to control; conditions: OVCAR-5, 48 h, read-out: Activity
HT-29 = test: Cytotoxicity against human HT-29 cells assessed as cell growth at 1 uM after 48 hrs by sulforhodamine B assay relative to control; conditions: HT-29, 48 h, read-out: Activity
Malme-3M [16] = test: Cytotoxicity against human MALME-3M cells assessed as cell growth at 1 uM after 48 hrs by sulforhodamine B assay relative to control; conditions: read-out: Activity
M14 [17] = test: Cytotoxicity against human M14 cells assessed as cell growth at 0.1 uM after 48 hrs by sulforhodamine B assay relative to control; conditions: M14, 48 h, read-out: Activity
OVCAR-3 = test: Cytotoxicity against human OVCAR3 cells assessed as cell growth at 1 uM after 48 hrs by sulforhodamine B assay relative to control; conditions: OVCAR-3, 48 h, read-out: Activity
COLO 205 [18] = test: Cytotoxicity against human COLO205 cells assessed as cell growth at 1 uM after 48 hrs by sulforhodamine B assay relative to control; conditions: COLO 205, 48 h, read-out: Activity
K562 = test: Cytotoxicity against human K562 cells assessed as cell growth at 100 uM after 48 hrs by sulforhodamine B assay relative to control; conditions: K562, 48 h, read-out: Activity

`COc1ccc(C(=O)/C=C/c2cc(-c3cc(OC)c(OC)c(OC)c3)n[nH]2)cc1` showed a growth at 0.1 µM (786-0) of 96%, a growth at 1 µM (UO-31 [1]) of 77% and a growth at 0.1 µM (NCI-H322M) of 96%. The LC50 (MCF7) was 7.61 µM, the TGI (MCF7) was 2.96 µM and the growth at 100 µM (NCI-H226) was -35%. It also gave a growth at 0.01 µM (SF-268) of 91%, a growth at 100 µM (MDA-MB-231) of 19% and an LC50 (concentration killing 50% of cells) (M14 [2]) of over 100 µM. It also gave a TGI (M14 [2]) of 4.93 µM, a growth at 10 µM (HL-60(TB)) of -47% and a growth at 0.01 µM (UO-31 [3]) of 87%. For the same compound, the growth at 0.1 µM (IGROV-1 [4]) was 102%, the growth at 0.1 µM (HCT-15) was 100% and the growth at 10 µM (RXF 393) was -97%. It also gave a growth at 10 µM (M14 [5]) of -44%, a growth at 0.01 µM (COLO 205 [6]) of 103% and a growth at 100 µM (COLO 205 [7]) of -81%. The growth at 10 µM (Malme-3M [8]) was -66%, the growth at 100 µM (Malme-3M [9]) was -2% and the growth at 1 µM (SNB-19) was 79%. The growth at 100 µM (UO-31 [10]) was -79%, the growth at 100 µM (A498 [11]) was -34% and the growth at 1 µM (MDA-MB-468 [12]) was 68%. The growth at 0.1 µM (MDA-MB-468 [13]) was 88%, the growth at 0.01 µM (HOP-62) was 99% and the LC50 (ACHN) was 6.71 µM. For the same compound, the TGI (ACHN) was 3.63 µM, the LC50 (HCC 2998) was 6.48 µM and the TGI (HCC 2998) was 3.4 µM. The growth at 0.1 µM (SR) was 83%, the growth at 1 µM (NCI-H23) was 95% and the growth at 0.1 µM (A498 [14]) was 87%. For the same compound, the growth at 100 µM (IGROV-1 [15]) was -29%, the growth at 100 µM (OVCAR-5) was -59% and the growth at 1 µM (HT-29) was 95%. It also gave a growth at 1 µM (Malme-3M [16]) of 93%, a growth at 0.1 µM (M14 [17]) of 97% and a growth at 1 µM (OVCAR-3) of 89%. For the same compound, the growth at 1 µM (COLO 205 [18]) was 94% and the growth at 100 µM (K562) was 1%.

`COc1ccc(-c2cc(/C=C/C(=O)c3ccc(OC)c(OC)c3)[nH]n2)cc1` gave a growth at 0.1 µM (786-0) of 102%, a growth at 1 µM (UO-31 [1]) of 61% and a growth at 0.1 µM (NCI-H322M) of 94%. It also gave a GI50 (MCF7) of 0.41 µM, an LC50 (MCF7) of 5.11 µM and a TGI (MCF7) of 1.76 µM. The growth at 100 µM (NCI-H226) was -43%, the growth at 0.01 µM (SF-268) was 101% and the growth at 100 µM (MDA-MB-231) was -86%. It also gave a GI50 (M14 [2]) of 2.17 µM, an LC50 (concentration killing 50% of cells) (M14 [2]) of 13.8 µM and a TGI (M14 [2]) of 4.97 µM. The growth at 10 µM (HL-60(TB)) was -21%, the growth at 0.01 µM (UO-31 [3]) was 86% and the growth at 0.1 µM (IGROV-1 [4]) was 91%. It also gave a growth at 0.1 µM (HCT-15) of 97%, a growth at 10 µM (RXF 393) of -82% and a growth at 10 µM (M14 [5]) of -42%. The growth at 0.01 µM (COLO 205 [6]) was 103%, the growth at 100 µM (COLO 205 [7]) was -77% and the growth at 10 µM (Malme-3M [8]) was -70%. For the same compound, the growth at 100 µM (Malme-3M [9]) was -100%, the growth at 1 µM (SNB-19) was 80% and the growth at 100 µM (UO-31 [10]) was -100%. The growth at 100 µM (A498 [11]) was -90%, the growth at 1 µM (MDA-MB-468 [12]) was 61% and the growth at 0.1 µM (MDA-MB-468 [13]) was 90%. It also gave a growth at 0.01 µM (HOP-62) of 97%, a GI50 (ACHN) of 1.68 µM and an LC50 (ACHN) of 8.71 µM. For the same compound, the TGI (ACHN) was 3.83 µM, the GI50 (HCC 2998) was 2.02 µM and the LC50 (HCC 2998) was 7.81 µM. The TGI (HCC 2998) was 3.97 µM, the growth at 0.1 µM (SR) was 106% and the growth at 1 µM (NCI-H23) was 98%. For the same compound, the growth at 0.1 µM (A498 [14]) was 79%, the growth at 100 µM (IGROV-1 [15]) was -84% and the growth at 100 µM (OVCAR-5) was -87%. For the same compound, the growth at 1 µM (HT-29) was 77%, the growth at 1 µM (Malme-3M [16]) was 82% and the growth at 0.1 µM (M14 [17]) was 105%. The growth at 1 µM (OVCAR-3) was 62%, the growth at 1 µM (COLO 205 [18]) was 95% and the growth at 100 µM (K562) was -26%.
